According to patent US5889013A, “Pyrimidine acyclonucleoside derivatives” (priority 1994, dated 1999):
Like-named read-outs stand apart in the source and are kept apart here.

Experiments:
[1] = tested on: human immunodeficiency virus (HIV); details: cited from earlier work; for side effects: patients, clinical use
[2] = tested on: HIV-1 (HTLV-IIIB strain); test: Inhibitory activity for HIV-induced cytopathogenicity (MT-4 cells, MTT method); assay type: cell-based; details: read-out: 50% inhibitory concentration of HIV infection
Protocol: (§1) In RPMI 1640 culture medium supplemented with 10% heat-inactivated fetal bovine serum, 2 mM of L-glutamine, 100 U/mL of penicillin G and 100 μg/mL of streptomycin, MT-4 cells (HTLV-1 transformed T4-cell line) at a concentration of 1×10^4 /well in a flat-bottom, microtiter plate were infected with 500 TCID50 of HIV-1 (HTLV-IIIB strain). Immediately after virus infection, sample serially diluted with culture medium from stock solution prepared in dimethyl sulfoxide was added to each well in quadriplicate. After 6 days incubation at 37° C., the viability of mock and HIV-infected cells was determined by the 3-(4,5-dimethylthiazol-2-yl)-2,5-diphenyltetrazolium bromide (MTT) method. And also, the cytotoxicity of sample to MT-4 cells not infected with HIV was assessed in parallel with its antiviral activity under the same way as above.

[3] = Cytotoxicity to MT-4 cells not infected with HIV (MTT method); assay type: cell-based; details: human
Protocol: as §1

[4] = Human immunodeficiency virus 1, IIIB, MT4, 144 h
[5] = MT-4 cells not infected with HIV, 6 days, 37° C., MTT, read-out: 50% cytotoxic concentration to MT-4 cells

| IC50 ([2]; Human immunodeficiency virus 1, MT4, 144 h, MT-4 cells infected with 500 TCID50 HIV-1 (HTLV-IIIB strain), 6 days, 37° C., MTT) [µM] | Structure (SMILES) | side effects [1] | clinical and immunological status of patients ([1]; patients with AIDS and AIDS-related complex) | IC50 [2, 4] [µM] | CC50 at 144 h [3, 5] [µM] | CC50 at 144 h ([3]; mt-4 cells) [µM] |
| --- | --- | --- | --- | --- | --- | --- |
| – | O=c1[nH]cnc2c1ncn2[C@H]1CC[C@@H](CO)O1 [DDI, 2',3'-dideoxyinosine] | side effects such as peripheral neuropathy and pancreatitis | – | – | – | – |
| – | Cc1cn([C@H]2C[C@H](N=[N+]=[N-])[C@@H](CO)O2)c(=O)[nH]c1=O [AZT, 3'-Deoxy-3'-azidothymidine, reference compound] | serious side effects such as anemia and leukopenia | proven to improve the clinical and immunological status of patients with AIDS and AIDS-related complex | 0.0046 | 22.7 | – |
| 0.6 | Nc1ccn([C@H]2CC[C@@H](CO)O2)c(=O)n1 [DDC, 2',3'-dideoxycytidine, reference compound] | side effects such as peripheral neuropathy and pancreatitis | – | – | – | 17.6 |
| – | Cc1cccc([Se]c2c(C(C)C)c(=O)[nH]c(=O)n2COCCO)c1 [Compound 11, 1-[(2-hydroxyethoxy)methyl]-5-isopropyl-6-[(3-methylphenyl)-selenenyl]uracil] | – | – | 0.015 | 30.5 | – |
| – | Cc1cc(C)cc([Se]c2c(C(C)C)c(=O)[nH]c(=S)n2COCc2ccccc2)c1 [Compound 28, 1-[(benzyloxy)methyl]-6-[(3,5-dimethylphenyl)selenenyl]-5-isopropyl-2-thiouracil] | – | – | 0.0054 | 30.9 | – |
| – | CCOCn1c([Se]c2cccc(C)c2)c(C(C)C)c(=O)[nH]c1=O [Compound 49, 1-(ethoxymethyl)-5-isopropyl-6-[(3-methylphenyl)selenenyl]uracil] | – | – | 0.0007 | 29.2 | – |
